Our source for the melting point values is patent US6872722B2, “Therapies for tissue damage resulting from ischemia” (Pfizer Inc, priority 2001, dated 2005).

A value given as a limit tells only on which side of the number the result lay.

Regarding `O=c1ccc(S(=O)(=O)c2cccc(Br)c2)n[nH]1` [Example 4I, 6-(3-Bromo-benzenesulfonyl)-2H-pyridazin-3-one], the melting point is above 220 °C.
